The text below walks through data of patent publication US20170166555A1, “FUNCTIONALISED AND SUBSTITUTED INDOLES AS ANTI-CANCER AGENTS” (Novogen Limited, priority 2013, published 2017).

Format in all cases: cell-based
The test system of test [1] is Tm5NM1-containing actin filaments in SK-N-SH neuroblastoma cells. Kind of test: Microfilament disruption assay, γ9d staining imaging and filament quantitation. The following applies: 0-40 μM, 24 h, FIG. 3. Here is the method:
FIG. 3: Imaging and quantitation of actin filaments in SK—N—SH neuroblastoma cells treated with compound (A) 4093 and (B) 4113. Cells were stained with γ9d (sheep polycolonal, 1:100) followed by 488-conjugated secondary (1:1000) and DAPI to visualize the Tm5NM1 containing filament bundles and the nucleus, respectively. Shown in the top panel is a representative grey scale immunofluorescent image from control (vehicle alone), 5 μM and 10 μM treated cells. […] The coloured lines indicate the detected actin filaments. Also shown is the quantitation of cell number, filament number/cell and filament number/cell area ([…]). […]
(§1) The ability of compounds 4093 and 4113 to disrupt the total actin cytoskeleton (FIG. 2) and to specifically target Tm5NM1-containing actin filaments (FIG. 3) was assessed in vitro using the microfilament disruption assay.
(§2) Briefly, SK-N-SH neuroblastoma cells were seeded at 1800 cells/well in a 384 Perkin Elmer High Content Imaging “View” plate and left to plate down 24 h prior to treatment. […] Images were then exported and changes in the organization and numbers of actin filaments within the cell were quantitated using a linear feature detection algorithm developed by the CSIRO. […] It is these “ridge lines” that correspond to actin filament bundles and allow us to quantitate the number of filaments per cell.

The subject of a further test is SK-Mel-28 melanoma cells. The test is described as follows: Anti-proliferative assay, cell-titre luminescent reagent, 72 h (GVK-BIO). The following applies: Homo sapiens, SK-MEL-28, 72 h, 30, 10, 3, 1, 0.3 and 0.1 μM, nonlinear regression (Table 5). A digest of the protocol:
(§3)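 Seed at predetermined density, 24 h attach (37 °C, 5% CO2). Dose 4-point (30–0.03 μM, 10-fold) → IC50 by linear regression on semi-log plot; or 6-point (30–0.1 μM) → EC50 by sigmoidal variable-slope fit. Reagent 30 min, luminescence vs untreated control.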

In test [2] the test system is PC3 prostate cancer cells. The test is described as above. The following applies: 30, 10, 3, 1, 0.3 and 0.1 μM, nonlinear regression (Table 5). In a few lines: as §3
The subject of test [3] is MDA-MB-231 triple negative breast cancer cells. Described as above. The following applies: Homo sapiens, MDA-MB-231, 72 h, 30, 10, 3, 1, 0.3 and 0.1 μM, nonlinear regression (Table 5). In a few lines: as §3
For test [4], the system named is SK-N-SH neuroblastoma cells. Described as above. Particulars: Homo sapiens, SK-N-SH, 30, 10, 3, 1, 0.3 and 0.1 μM, nonlinear regression (Table 5). A digest of the protocol: as §3
Test [5] has as its system DU145 prostate cancer cells. The test is described as above. The following applies: Homo sapiens, DU-145, 72 h, 30, 10, 3, 1, 0.3 and 0.1 μM, nonlinear regression (Table 5). In a few lines:
as §3

Test [6] relates to CaCo2 colorectal cancer cells. The test is described as above. Particulars: Homo sapiens, Caco-2, 72 h, 30, 10, 3, 1, 0.3 and 0.1 μM, nonlinear regression (Table 5). A digest of the protocol: as §3
Test [7] has as its system A549 non-small cell lung carcinoma cells. The test is described as above. Particulars: Homo sapiens, A549, 72 h, 30, 10, 3, 1, 0.3 and 0.1 μM, nonlinear regression (Table 5), read-out: IC50/μM Lung (NSLC) A549. A digest of the protocol: as §3
In test [8] the test system is total actin cytoskeleton in SK-N-SH neuroblastoma cells. Kind of test: Microfilament disruption assay, 488-Atto-Phallodin imaging and filament quantitation. Particulars: 0-40 μM, 24 h, FIG. 2. Here is the method: FIG. 2: Imaging and quantitation of actin filaments in SK—N—SH neuroblastoma cells treated with compound (A) 4093 and (B) 4113. Cells were stained with 488-Atto-Phallodin and DAPI to visualize the actin filament bundles and the nucleus, respectively. Shown in the top panel is a representative grey scale immunofluorescent image from control (vehicle alone), 5 μM and 10 μM treated cells. […] The coloured lines indicate the detected actin filaments. Also shown is the quantitation of cell number, filament number/cell and filament number/cell area ([…]). […]
as §1, §2

As for `Cc1c(C)n(CCCN2CCN(C)CC2)c2ccc(CN3CCN(CCc4ccc5c(c4)OCO5)CC3)cc12` [Compound 4113, 5-((4-(2-(benzo[d][1,3]dioxol-5-yl)ethyl)piperazin-1-yl)methyl)-2,3-dimethyl-1-(3-(4-methylpiperazin-1-yl)propyl)-1H-indole], the “Disruption of Tm5NM1-containing actin filaments” value in [1] was “disrupt both the total actin cytoskeleton and Tm5NM1-containing actin filaments in a dose-dependent manner”. The IC50 stood at 0.9 µM in the test with SK-Mel-28 melanoma cells; 11.4 µM in [2]; 2.8 µM in test [3]; 1.7 µM in test [4]; 5.4 µM in [5]; 4.6 µM in test [6]. Also, the IC50 in test [7] amounted to 5.2 µM. Further, the “Disruption of the total actin cytoskeleton” value in test [8] is “disrupt both the total actin cytoskeleton and Tm5NM1-containing actin filaments in a dose-dependent manner”.
